{"source": "ChEMBL document CHEMBL5058649", "about": "“Data for DCP probe BAY 1816032” (2022)", "key": {"[1]": {"target": "ATP-sensitive inward rectifier potassium channel 11 (Cricetulus griseus) (UniProt A0A3L7HHE1)", "experiment": "Inhibition of Potassium Channel [KATP] at 10 µM in the Eurofins-Panlabs radioligand binding assay (Eurofins_assay_265600)", "details": "Cricetinae; Compound concentration 10.0 uM"}, "[2]": {"target": "hERG (KCNH2) (Homo sapiens, UniProt Q12809)", "experiment": "Inhibition of Potassium Channel hERG at 10 µM in the Eurofins-Panlabs radioligand binding assay (Eurofins_assay_265900)", "design": "ligand concentration 1.5 nM, non-specific ligand with concentration Astemizole, incubation time 60 min, incubation temperature 25 °C", "details": "HEK-293 cells expressing human recombinant hERG, probe [3H] Astemizole, compound concentration 10 uM"}, "[3]": {"organism": "Rattus norvegicus", "experiment": "Inhibition of Glycine, Strychnine-Sensitive at 10 µM in the Eurofins-Panlabs radioligand binding assay (Eurofins_assay_239000)", "details": "Compound concentration 10.0 uM"}, "[4]": {"target": "Mitotic checkpoint serine/threonine-protein kinase BUB1 (Homo sapiens, UniProt O43683)", "experiment": "TR-FRET"}, "[5]": {"target": "Serine/threonine-protein kinase MRCK gamma (Homo sapiens, UniProt Q6DT37)", "sequence (Q6DT37 whole entry)": "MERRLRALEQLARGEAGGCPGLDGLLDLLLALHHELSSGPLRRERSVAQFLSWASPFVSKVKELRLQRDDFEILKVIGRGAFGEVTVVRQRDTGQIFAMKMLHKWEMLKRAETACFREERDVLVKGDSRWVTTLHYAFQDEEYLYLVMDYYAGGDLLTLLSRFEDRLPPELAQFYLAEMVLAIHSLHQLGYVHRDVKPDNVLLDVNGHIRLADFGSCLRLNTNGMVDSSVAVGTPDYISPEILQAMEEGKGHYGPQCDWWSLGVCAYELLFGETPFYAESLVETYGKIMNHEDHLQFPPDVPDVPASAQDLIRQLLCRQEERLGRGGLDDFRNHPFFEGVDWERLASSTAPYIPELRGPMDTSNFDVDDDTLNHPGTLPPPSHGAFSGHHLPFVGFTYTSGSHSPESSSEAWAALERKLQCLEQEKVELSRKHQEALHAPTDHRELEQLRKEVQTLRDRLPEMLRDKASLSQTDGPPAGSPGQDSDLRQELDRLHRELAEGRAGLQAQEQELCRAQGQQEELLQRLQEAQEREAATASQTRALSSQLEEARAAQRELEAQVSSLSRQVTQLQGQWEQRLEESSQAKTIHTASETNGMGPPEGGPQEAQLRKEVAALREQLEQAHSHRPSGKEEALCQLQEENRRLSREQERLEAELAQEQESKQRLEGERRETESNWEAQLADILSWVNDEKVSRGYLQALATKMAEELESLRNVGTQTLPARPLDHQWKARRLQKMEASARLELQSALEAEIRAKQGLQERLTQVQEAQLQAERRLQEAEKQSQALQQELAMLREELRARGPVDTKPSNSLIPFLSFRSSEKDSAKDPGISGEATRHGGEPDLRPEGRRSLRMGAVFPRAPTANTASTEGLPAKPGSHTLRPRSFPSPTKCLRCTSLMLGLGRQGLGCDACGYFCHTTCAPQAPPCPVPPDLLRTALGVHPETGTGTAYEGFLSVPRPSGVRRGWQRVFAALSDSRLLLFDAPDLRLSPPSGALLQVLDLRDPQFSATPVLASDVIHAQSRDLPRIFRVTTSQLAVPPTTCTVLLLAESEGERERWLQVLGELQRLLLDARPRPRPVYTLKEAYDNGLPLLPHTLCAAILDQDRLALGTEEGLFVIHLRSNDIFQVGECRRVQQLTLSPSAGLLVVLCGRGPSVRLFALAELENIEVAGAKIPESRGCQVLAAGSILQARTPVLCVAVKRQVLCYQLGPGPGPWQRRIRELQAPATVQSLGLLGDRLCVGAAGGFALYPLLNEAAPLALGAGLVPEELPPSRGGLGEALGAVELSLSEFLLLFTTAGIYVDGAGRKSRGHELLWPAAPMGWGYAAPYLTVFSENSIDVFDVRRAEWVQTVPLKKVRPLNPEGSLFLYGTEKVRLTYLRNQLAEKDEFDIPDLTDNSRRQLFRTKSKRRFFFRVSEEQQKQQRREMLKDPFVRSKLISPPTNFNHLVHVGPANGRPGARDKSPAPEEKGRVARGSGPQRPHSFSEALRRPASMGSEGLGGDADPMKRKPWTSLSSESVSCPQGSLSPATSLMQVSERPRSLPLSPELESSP", "experiment": "DMPK2 DiscoveRx kinase panel"}, "[6]": {"target": "Tyrosine-protein kinase receptor UFO (Homo sapiens) (UniProt P30530)", "sequence (P30530 whole entry)": "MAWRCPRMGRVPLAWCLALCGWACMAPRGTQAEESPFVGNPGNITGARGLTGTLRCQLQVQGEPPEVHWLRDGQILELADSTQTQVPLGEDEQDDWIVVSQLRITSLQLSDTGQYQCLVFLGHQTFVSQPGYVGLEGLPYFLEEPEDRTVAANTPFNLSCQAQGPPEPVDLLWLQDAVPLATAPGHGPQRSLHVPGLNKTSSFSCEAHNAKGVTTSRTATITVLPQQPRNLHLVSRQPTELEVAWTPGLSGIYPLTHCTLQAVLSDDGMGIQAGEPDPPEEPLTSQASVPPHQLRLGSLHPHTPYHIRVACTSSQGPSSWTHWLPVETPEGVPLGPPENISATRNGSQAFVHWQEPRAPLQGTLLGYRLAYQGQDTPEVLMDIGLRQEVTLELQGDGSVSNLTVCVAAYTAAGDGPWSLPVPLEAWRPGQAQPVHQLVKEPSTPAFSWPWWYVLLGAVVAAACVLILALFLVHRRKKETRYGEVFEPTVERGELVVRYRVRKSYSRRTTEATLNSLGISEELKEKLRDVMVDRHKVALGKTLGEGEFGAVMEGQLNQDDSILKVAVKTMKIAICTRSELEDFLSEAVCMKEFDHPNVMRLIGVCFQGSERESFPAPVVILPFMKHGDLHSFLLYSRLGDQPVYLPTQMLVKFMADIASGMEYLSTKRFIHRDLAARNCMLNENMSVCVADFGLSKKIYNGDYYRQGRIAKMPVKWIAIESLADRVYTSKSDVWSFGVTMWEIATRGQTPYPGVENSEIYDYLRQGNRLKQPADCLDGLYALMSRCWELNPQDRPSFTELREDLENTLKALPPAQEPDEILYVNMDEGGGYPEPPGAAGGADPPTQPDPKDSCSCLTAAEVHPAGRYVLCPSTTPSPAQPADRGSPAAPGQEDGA", "experiment": "AXL DiscoveRx kinase panel", "details": "Compound concentration 1.0 uM"}, "[7]": {"target": "Phosphatidylinositol 3-kinase catalytic subunit type 3 (Homo sapiens) (UniProt Q8NEB9)", "experiment": "VPS34 DiscoveRx kinase panel", "details": "Compound concentration 1.0 uM"}, "[8]": {"target": "Receptor-interacting serine/threonine-protein kinase 4 (Homo sapiens) (UniProt P57078)", "experiment": "RIPK4 DiscoveRx kinase panel", "details": "Compound concentration 1.0 uM"}, "[9]": {"target": "Serine/threonine-protein kinase 32A (Homo sapiens) (UniProt Q8WU08)", "experiment": "YANK1 DiscoveRx kinase panel", "details": "Compound concentration 1.0 uM"}, "[10]": {"target": "Activin receptor type-1B (Homo sapiens) (UniProt P36896)", "experiment": "ACVR1B DiscoveRx kinase panel", "details": "Compound concentration 1.0 uM"}, "[11]": {"target": "Serine/threonine-protein kinase 32C (Homo sapiens) (UniProt Q86UX6)", "experiment": "YANK3 DiscoveRx kinase panel", "details": "Compound concentration 1.0 uM"}, "[12]": {"target": "Ephrin type-A receptor 5 (Homo sapiens) (UniProt P54756)", "experiment": "EPHA5 DiscoveRx kinase panel", "details": "Compound concentration 1.0 uM"}, "[13]": {"target": "Mitogen-activated protein kinase 12 (Homo sapiens) (UniProt P53778)", "experiment": "p38-gamma DiscoveRx kinase panel", "details": "Compound concentration 1.0 uM"}, "[14]": {"target": "Serine/threonine-protein kinase ICK (Homo sapiens) (UniProt Q9UPZ9)", "sequence (Q9UPZ9 whole entry)": "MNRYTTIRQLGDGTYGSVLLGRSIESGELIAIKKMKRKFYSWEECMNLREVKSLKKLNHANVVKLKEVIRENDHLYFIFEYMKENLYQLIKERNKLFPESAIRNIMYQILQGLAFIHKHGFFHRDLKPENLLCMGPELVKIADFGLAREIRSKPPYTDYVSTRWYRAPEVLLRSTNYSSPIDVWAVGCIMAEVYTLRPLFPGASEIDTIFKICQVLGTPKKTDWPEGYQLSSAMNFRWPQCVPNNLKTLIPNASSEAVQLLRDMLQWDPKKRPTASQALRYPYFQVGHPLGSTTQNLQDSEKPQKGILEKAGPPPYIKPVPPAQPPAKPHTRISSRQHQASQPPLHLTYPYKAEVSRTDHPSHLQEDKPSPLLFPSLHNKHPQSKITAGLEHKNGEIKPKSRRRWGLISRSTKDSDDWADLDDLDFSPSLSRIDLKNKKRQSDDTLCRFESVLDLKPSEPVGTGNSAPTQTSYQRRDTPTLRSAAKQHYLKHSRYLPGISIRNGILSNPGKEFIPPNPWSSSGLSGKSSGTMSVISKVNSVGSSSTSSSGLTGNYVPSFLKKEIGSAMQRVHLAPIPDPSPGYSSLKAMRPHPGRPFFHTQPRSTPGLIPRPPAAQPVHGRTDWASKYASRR", "experiment": "ICK DiscoveRx kinase panel", "details": "Compound concentration 1.0 uM"}, "[15]": {"target": "Mitogen-activated protein kinase kinase kinase 12 (Homo sapiens) (UniProt Q12852)", "experiment": "DLK DiscoveRx kinase panel", "details": "Compound concentration 1.0 uM"}, "[16]": {"target": "Tyrosine-protein kinase Blk (Homo sapiens) (UniProt P51451)", "experiment": "BLK DiscoveRx kinase panel", "details": "Compound concentration 1.0 uM"}, "[17]": {"target": "Receptor-type tyrosine-protein kinase FLT3 (Homo sapiens) (UniProt P36888)", "experiment": "FLT3 DiscoveRx kinase panel", "details": "Compound concentration 1.0 uM"}, "[18]": {"target": "Myosin-IIIb (Homo sapiens) (UniProt Q8WXR4)", "experiment": "MYO3B DiscoveRx kinase panel", "details": "Compound concentration 1.0 uM"}, "[19]": {"target": "Serine/threonine-protein kinase N1 (Homo sapiens) (UniProt Q16512)", "experiment": "PKN1 DiscoveRx kinase panel", "details": "Compound concentration 1.0 uM"}, "[20]": {"target": "Mitogen-activated protein kinase kinase kinase 3 (Homo sapiens) (UniProt Q99759)", "experiment": "MAP3K3 DiscoveRx kinase panel", "details": "Compound concentration 1.0 uM"}, "[21]": {"target": "Ephrin type-A receptor 4 (Homo sapiens) (UniProt P54764)", "experiment": "EPHA4 DiscoveRx kinase panel", "details": "Compound concentration 1.0 uM"}, "[22]": {"target": "Ephrin type-A receptor 7 (Homo sapiens) (UniProt Q15375)", "experiment": "EPHA7 DiscoveRx kinase panel", "details": "Compound concentration 1.0 uM"}, "[23]": {"target": "Serine/threonine-protein kinase 38 (Homo sapiens) (UniProt Q15208)", "experiment": "NDR1 DiscoveRx kinase panel", "details": "Compound concentration 1.0 uM"}, "[24]": {"target": "Cyclin-dependent kinase 9 (Homo sapiens) (UniProt P50750)", "experiment": "CDK9 DiscoveRx kinase panel", "details": "Compound concentration 1.0 uM"}, "[25]": {"target": "Serine/threonine-protein kinase Sgk3 (Homo sapiens) (UniProt Q96BR1)", "experiment": "SGK3 DiscoveRx kinase panel", "details": "Compound concentration 1.0 uM"}, "[26]": {"target": "5'-AMP-activated protein kinase catalytic subunit alpha-1 (Homo sapiens) (UniProt Q13131)", "experiment": "AMPK-alpha1 DiscoveRx kinase panel", "details": "Compound concentration 1.0 uM"}, "[27]": {"target": "CDK4/Cyclin D3 (Homo sapiens) (UniProt P11802+P30281)", "experiment": "CDK4-cyclinD3 DiscoveRx kinase panel", "format": "protein-complex assay", "details": "Compound concentration 1.0 uM"}, "[28]": {"target": "Serine/threonine-protein kinase Chk2 (Homo sapiens) (UniProt O96017)", "sequence (O96017 whole entry)": "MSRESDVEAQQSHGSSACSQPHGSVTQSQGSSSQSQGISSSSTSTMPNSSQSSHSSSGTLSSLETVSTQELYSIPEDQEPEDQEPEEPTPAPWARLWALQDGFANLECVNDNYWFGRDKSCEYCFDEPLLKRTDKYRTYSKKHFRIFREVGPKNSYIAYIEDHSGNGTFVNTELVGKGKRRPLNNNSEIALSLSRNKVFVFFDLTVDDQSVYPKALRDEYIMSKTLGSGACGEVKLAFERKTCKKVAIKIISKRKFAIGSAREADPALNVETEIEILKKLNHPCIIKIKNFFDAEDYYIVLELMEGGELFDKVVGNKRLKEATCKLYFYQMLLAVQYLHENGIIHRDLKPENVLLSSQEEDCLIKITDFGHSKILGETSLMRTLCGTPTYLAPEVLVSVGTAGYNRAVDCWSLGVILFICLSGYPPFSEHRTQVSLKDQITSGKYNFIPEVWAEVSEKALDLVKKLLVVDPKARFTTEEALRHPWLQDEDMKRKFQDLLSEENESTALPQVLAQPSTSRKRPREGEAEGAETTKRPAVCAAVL", "experiment": "CHEK2 DiscoveRx kinase panel", "details": "Compound concentration 1.0 uM"}, "[29]": {"target": "Casein kinase I isoform epsilon (Homo sapiens) (UniProt P49674)", "experiment": "CSNK1E DiscoveRx kinase panel", "details": "Compound concentration 1.0 uM"}, "[30]": {"target": "Ephrin type-B receptor 1 (Homo sapiens) (UniProt P54762)", "sequence (P54762 whole entry)": "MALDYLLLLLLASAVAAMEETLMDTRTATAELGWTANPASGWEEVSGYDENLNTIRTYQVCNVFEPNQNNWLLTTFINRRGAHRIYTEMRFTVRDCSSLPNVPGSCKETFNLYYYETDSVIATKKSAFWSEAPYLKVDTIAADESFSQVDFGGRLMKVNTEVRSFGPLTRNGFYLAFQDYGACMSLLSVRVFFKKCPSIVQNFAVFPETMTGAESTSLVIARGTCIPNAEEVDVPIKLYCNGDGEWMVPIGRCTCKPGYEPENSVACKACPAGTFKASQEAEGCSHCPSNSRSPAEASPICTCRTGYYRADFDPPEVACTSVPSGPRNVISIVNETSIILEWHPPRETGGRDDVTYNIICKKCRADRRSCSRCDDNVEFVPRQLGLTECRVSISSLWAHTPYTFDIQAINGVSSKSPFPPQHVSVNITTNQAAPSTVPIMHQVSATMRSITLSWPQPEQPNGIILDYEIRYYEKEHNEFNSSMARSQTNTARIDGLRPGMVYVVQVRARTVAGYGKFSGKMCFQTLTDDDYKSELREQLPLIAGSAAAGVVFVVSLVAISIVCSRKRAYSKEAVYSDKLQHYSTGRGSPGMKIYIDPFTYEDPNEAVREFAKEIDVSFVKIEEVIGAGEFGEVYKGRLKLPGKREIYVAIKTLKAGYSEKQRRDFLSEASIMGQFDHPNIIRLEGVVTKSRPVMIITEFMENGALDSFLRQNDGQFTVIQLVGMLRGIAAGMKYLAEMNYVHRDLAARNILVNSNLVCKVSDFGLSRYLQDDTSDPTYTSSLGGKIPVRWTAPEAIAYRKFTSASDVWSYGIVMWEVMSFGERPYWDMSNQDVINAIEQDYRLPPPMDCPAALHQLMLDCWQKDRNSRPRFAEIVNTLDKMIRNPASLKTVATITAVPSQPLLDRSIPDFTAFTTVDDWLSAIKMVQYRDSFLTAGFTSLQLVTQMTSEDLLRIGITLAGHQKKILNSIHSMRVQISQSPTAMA", "experiment": "EPHB1 DiscoveRx kinase panel", "details": "Compound concentration 1.0 uM"}, "[31]": {"target": "Fibroblast growth factor receptor 3 (Homo sapiens) (UniProt P22607)", "experiment": "FGFR3 DiscoveRx kinase panel", "details": "Compound concentration 1.0 uM"}, "[32]": {"target": "Interleukin-1 receptor-associated kinase 1 (Homo sapiens) (UniProt P51617)", "experiment": "IRAK1 DiscoveRx kinase panel", "details": "Compound concentration 1.0 uM"}, "[33]": {"target": "Serine/threonine-protein kinase LATS2 (Homo sapiens) (UniProt Q9NRM7)", "experiment": "LATS2 DiscoveRx kinase panel", "details": "Compound concentration 1.0 uM"}, "[34]": {"target": "Serine/threonine-protein kinase pim-1 (Homo sapiens) (UniProt P11309)", "experiment": "PIM1 DiscoveRx kinase panel", "details": "Compound concentration 1.0 uM"}, "[35]": {"target": "Serine/threonine-protein kinase pim-2 (Homo sapiens) (UniProt Q9P1W9)", "sequence (Q9P1W9 whole entry, looked up)": "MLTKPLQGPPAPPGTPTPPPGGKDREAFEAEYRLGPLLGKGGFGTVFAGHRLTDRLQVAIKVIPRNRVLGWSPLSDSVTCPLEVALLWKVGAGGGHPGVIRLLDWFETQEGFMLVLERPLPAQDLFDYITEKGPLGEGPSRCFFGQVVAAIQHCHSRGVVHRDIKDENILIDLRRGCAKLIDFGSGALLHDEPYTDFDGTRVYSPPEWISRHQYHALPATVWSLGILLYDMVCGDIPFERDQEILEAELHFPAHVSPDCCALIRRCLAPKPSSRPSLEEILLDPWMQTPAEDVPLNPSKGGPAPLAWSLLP", "experiment": "PIM2 DiscoveRx kinase panel", "details": "Compound concentration 1.0 uM"}, "[36]": {"target": "Protein kinase C epsilon type (Homo sapiens) (UniProt Q02156)", "experiment": "PRKCE DiscoveRx kinase panel", "details": "Compound concentration 1.0 uM"}, "[37]": {"target": "Serine/threonine-protein kinase SIK3 (Homo sapiens) (UniProt Q9Y2K2)", "experiment": "QSK DiscoveRx kinase panel", "details": "Compound concentration 1.0 uM"}, "[38]": {"target": "Ribosomal protein S6 kinase alpha-4 (Homo sapiens) (UniProt O75676)", "experiment": "RPS6KA4(Kin.Dom.2-C-terminal) DiscoveRx kinase panel", "details": "Compound concentration 1.0 uM"}, "[39]": {"target": "Ribosomal protein S6 kinase alpha-3 (Homo sapiens) (UniProt P51812)", "experiment": "RSK2(Kin.Dom.1-N-terminal) DiscoveRx kinase panel", "details": "Compound concentration 1.0 uM"}, "[40]": {"target": "Serine/threonine-protein kinase SIK2 (Homo sapiens) (UniProt Q9H0K1)", "experiment": "SIK2 DiscoveRx kinase panel", "details": "Compound concentration 1.0 uM"}, "[41]": {"target": "Testis-specific serine/threonine-protein kinase 1 (Homo sapiens) (UniProt Q9BXA7)", "experiment": "TSSK1B DiscoveRx kinase panel", "details": "Compound concentration 1.0 uM"}, "[42]": {"system": "MDA-MB-468", "experiment": "MDA-MB-468 cell line Proliferation assay", "format": "functional, Homo sapiens", "details": "time 4 day"}, "[43]": {"target": "5-hydroxytryptamine receptor 1B (Homo sapiens) (UniProt P28222)", "details": "Compound concentration 10.0 uM"}, "[44]": {"target": "D(1B) dopamine receptor (Homo sapiens) (UniProt P21918)", "details": "Compound concentration 10.0 uM"}, "[45]": {"target": "Sigma non-opioid intracellular receptor 1 (Homo sapiens, UniProt Q99720)", "details": "Compound concentration 10.0 uM"}, "[46]": {"target": "Histamine H1 receptor (Homo sapiens) (UniProt P35367)", "details": "Compound concentration 10.0 uM"}, "[47]": {"target": "Kappa-type opioid receptor (Homo sapiens) (UniProt P41145)", "details": "Compound concentration 10.0 uM"}, "[48]": {"target": "5-hydroxytryptamine receptor 2C (Homo sapiens) (UniProt P28335)", "details": "Compound concentration 10.0 uM"}}, "note": "Active and inactive are the calls of the source. The rule behind the calls is not given here."}
{"smiles": "COc1cnccc1Nc1nc(-c2nn(Cc3c(F)cc(OCCO)cc3F)c3ccccc23)ncc1OC", "values": [{"measurement": "inhibition", "setting": "[1]", "result": 4, "unit": "%"}, {"measurement": "inhibition at 60 min, 10 µM", "setting": "[2]", "result": "23% (not active)"}, {"measurement": "inhibition", "setting": "[3]", "result": 0, "unit": "%"}, {"measurement": "EC50", "setting": "[4]", "result": "6.1 nM (active)"}, {"measurement": "Kd", "setting": "[5]", "result": 850, "unit": "nM"}, {"measurement": "residual activity", "setting": "[5]; Compound concentration 1.0 uM", "result": 22, "unit": "%"}, {"measurement": "residual activity", "setting": "[6]", "result": 47, "unit": "%"}, {"measurement": "residual activity", "setting": "[7]", "result": 55, "unit": "%"}, {"measurement": "residual activity", "setting": "[8]", "result": 70, "unit": "%"}, {"measurement": "residual activity", "setting": "[9]", "result": 71, "unit": "%"}, {"measurement": "residual activity", "setting": "[10]", "result": 72, "unit": "%"}, {"measurement": "residual activity", "setting": "[11]", "result": 72, "unit": "%"}, {"measurement": "residual activity", "setting": "[12]", "result": 78, "unit": "%"}, {"measurement": "residual activity", "setting": "[13]", "result": 83, "unit": "%"}, {"measurement": "residual activity", "setting": "[14]", "result": 84, "unit": "%"}, {"measurement": "residual activity", "setting": "[15]", "result": 87, "unit": "%"}, {"measurement": "residual activity", "setting": "[16]", "result": 88, "unit": "%"}, {"measurement": "residual activity", "setting": "[17]", "result": 88, "unit": "%"}, {"measurement": "residual activity", "setting": "[18]", "result": 91, "unit": "%"}, {"measurement": "residual activity", "setting": "[19]", "result": 92, "unit": "%"}, {"measurement": "residual activity", "setting": "[20]", "result": 95, "unit": "%"}, {"measurement": "residual activity", "setting": "[21]", "result": 96, "unit": "%"}, {"measurement": "residual activity", "setting": "[22]", "result": 98, "unit": "%"}, {"measurement": "residual activity", "setting": "[23]", "result": 98, "unit": "%"}, {"measurement": "residual activity", "setting": "[24]", "result": 99, "unit": "%"}, {"measurement": "residual activity", "setting": "[25]", "result": 99, "unit": "%"}, {"measurement": "residual activity", "setting": "[26]", "result": 100, "unit": "%"}, {"measurement": "residual activity", "setting": "[27]", "result": 100, "unit": "%"}, {"measurement": "residual activity", "setting": "[28]", "result": 100, "unit": "%"}, {"measurement": "residual activity", "setting": "[29]", "result": 100, "unit": "%"}, {"measurement": "residual activity", "setting": "[30]", "result": 100, "unit": "%"}, {"measurement": "residual activity", "setting": "[31]", "result": 100, "unit": "%"}, {"measurement": "residual activity", "setting": "[32]", "result": 100, "unit": "%"}, {"measurement": "residual activity", "setting": "[33]", "result": 100, "unit": "%"}, {"measurement": "residual activity", "setting": "[34]", "result": 100, "unit": "%"}, {"measurement": "residual activity", "setting": "[35]", "result": 100, "unit": "%"}, {"measurement": "residual activity", "setting": "[36]", "result": 100, "unit": "%"}, {"measurement": "residual activity", "setting": "[37]", "result": 100, "unit": "%"}, {"measurement": "residual activity", "setting": "[38]", "result": 100, "unit": "%"}, {"measurement": "residual activity", "setting": "[39]", "result": 100, "unit": "%"}, {"measurement": "residual activity", "setting": "[40]", "result": 100, "unit": "%"}, {"measurement": "residual activity", "setting": "[41]", "result": 100, "unit": "%"}, {"measurement": "Cell Proliferation IC50", "setting": "[42]", "result": 1, "unit": "µM"}, {"measurement": "inhibition", "setting": "[43]", "result": 11.8, "unit": "%"}, {"measurement": "inhibition", "setting": "[44]", "result": -0.37, "unit": "%"}, {"measurement": "inhibition", "setting": "[45]", "result": 4.34, "unit": "%"}, {"measurement": "inhibition", "setting": "[46]", "result": 12, "unit": "%"}, {"measurement": "inhibition", "setting": "[47]", "result": 26, "unit": "%"}, {"measurement": "inhibition", "setting": "[48]", "result": 21, "unit": "%"}]}
